Measured values taken from PubChem BioAssay (NCI).
“And” between values parts separate entries of the source, which are not always exact repeats. Equal entries are not always repeated.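 Cells were grown in 96-well plates and exposed to each compound for 48 hours at five concentrations; endpoints were interpolated linearly between bracketing concentrations, or set to the highest concentration if not reached. Here, GI50 denotes the concentration required for 50% inhibition of growth. TGI denotes the concentration required for complete inhibition of growth.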

Columns and labels:
Assay in all cases: inhibition of tumour cell growth, NCI panel, 48 h
[1] = tested on: LXFL 529 NSCLC
[2] = tested on: MALME-3M melanoma
[3] = tested on: LOX IMVI melanoma
[4] = tested on: CCRF-CEM leukemia
[5] = tested on: DMS 114 small cell lung
[6] = tested on: SN12C renal
[7] = tested on: SK-MEL-2 melanoma
[8] = tested on: DLD-1 colon
[9] = tested on: SF-539 CNS
[10] = tested on: BT-549 breast
[11] = tested on: DU-145 prostate
[12] = tested on: DMS 273 small cell lung

SMILES | TGI [1] [µM] | TGI [2] | TGI [3] [µM] | TGI [4] [µM] | TGI [5] [µM] | TGI [6] | TGI [7] | TGI [8] [µM] | GI50 [2] [µM] | GI50 [9] [µM] | TGI [9] | TGI [10] [µM] | GI50 [6] [µM] | TGI [11] [µM] | TGI [12] [µM] | GI50 [11] [µM] | GI50 [7] [µM] | GI50 [3] [µM] | GI50 [4] [µM] | GI50 [10] [µM]
COc1cc2c(c(OC)c1OC)-c1ccc(SC)c(=O)cc1C(CC(=O)Oc1ccccc1F)C2 (configuration not stated) | > 7.5 | > 7.5 µM | 4.28 | > 7.5 | 0.0438 | > 7.5 µM | 0.125 µM | > 7.5 | – | – | – | – | – | – | – | – | – | – | – | –
CC(=O)O[C@H]1C(=O)[C@@]2(C)C([C@H](OC(=O)c3ccccc3)[C@]3(O)C[C@H](OC(=O)[C@H](O)[C@@H](NC(=O)c4ccc(Cl)cc4)c4ccccc4)C(C)=C1C3(C)C)C1(OC(C)=O)CO[C@@H]1C[C@@H]2O (some centres not stated) | 57.2 | 25 µM and 24.1 µM | 49.6 | 52.2 | – | 25 µM and 83.2 µM | – | > 100 | 0.0599 | 0.0119 | 0.273 µM and 0.0407 µM | 0.212 | 0.0166 | 0.452 | – | – | – | – | – | –
Cc1cc(N(CCC#N)CCC#N)ccc1/C=C1N=C(/C=C\c2ccccc2)N(c2ccc(C(=O)O)cc2)C\1=O | > 100 | > 100 µM | > 100 | > 100 | > 100 | > 100 µM | > 100 µM | > 100 | – | – | > 100 µM | – | – | – | – | – | – | – | – | –
COc1ccc(/C(C#N)=C2/O/C(=N/N)C(c3ccc(OC)c(OC)c3)C2=O)cc1OC (configuration not stated) | > 100 | > 100 µM | > 100 | > 100 | – | > 100 µM | > 100 µM | > 100 | – | – | > 100 µM | – | – | – | > 100 | – | – | – | – | –
COc1cc(OC)c(OC)cc1/C=C\c1ccnc2ccccc12 | > 100 | > 100 µM | > 42.5 | 67.8 | – | > 100 µM | 7.4 µM | > 100 | – | – | 1.32 µM | > 100 | – | > 100 | – | – | – | – | – | –
COc1ccc2cc1Oc1ccc(cc1)CC1c3c(cc(OC)c4c3Oc3cc5c(cc3O4)CCNC5C2)CCN1C (configuration not stated) | – | 3.68 µM | 3.22 | 3.61 | – | 3.89 µM and 3.3 µM | 3.49 µM and 3.85 µM | – | – | 1.9 | 3.23 µM and 3.69 µM | 8.01 | 1.82 | 2.87 | – | 1.54 | 2.19 | – | – | –
Cc1cc(=O)[nH]c2c1C(=O)c1c(C)cc(=O)n(C)c1C2=O | – | 0.00494 µM | 0.26 | > 10 | – | 0.195 µM | 0.0592 µM | – | – | – | 0.0369 µM | 0.0519 | – | 0.0479 | – | – | – | – | – | –
CC(C)OC(=O)c1cc(NC(=S)OC(C)C)ccc1Cl | – | > 56.9 µM | 31.2 | > 96.3 | – | 34.4 µM | 51.6 µM | – | – | – | 30.5 µM | 33.5 | – | > 62.1 | – | – | – | – | – | –
COc1ccc(-c2nn(-c3cccc(Cl)c3)cc2-c2c(C#N)c(=O)n3[nH]c(-c4ccc(C)o4)nc3c2C#N)cc1 | – | 41.1 µM | 12.3 | > 50 | – | > 50 µM | 18.1 µM | – | 7.88 | 5.67 | > 50 µM | 43.5 | 5.3 | > 50 | – | 19.1 | 6.57 | 3.92 | 2.45 | 4.19
COc1cc(C(=O)/C=C/c2c(C)n([O-])c3ccc(Cl)cc3[n+]2=O)cc(OC)c1OC | – | > 100 µM | > 100 | 18.3 | – | > 100 µM | 81.3 µM | – | 36.3 | 11.2 | 27.4 µM | > 100 | 10.4 | > 100 | – | 4.2 | 17 | 5.78 | 2.14 | 11
COc1ccc(-c2nc3sccn3c2/C=C/C(=O)c2cc(OC)c(OC)c(OC)c2)cc1 | – | > 100 µM | 6.59 | 53.1 | – | > 100 µM | > 26.3 µM | – | 4.39 | 1.79 | 4.96 µM | > 28.7 | 3 | 12.9 | – | 2.86 | 3.58 | 2.11 | 3.4 | 2.56
Clc1cc(Cl)cc(Nc2ccc3c(OCCCN4CCOCC4)cccc3n2)c1 | – | 6.33 µM | 3.24 | 6.36 | – | 26.8 µM | 9.51 µM | – | 2.5 | 1.94 | 3.84 µM | 20 | 10.8 | 9.67 | – | 3.08 | 3.45 | 1.72 | 2.36 | 6.93
COc1cc(/C=C/C(=O)/C=C/c2ccc(-n3ccnc3)cc2)ccc1O | – | 36.7 µM | 3.19 | 12.7 | – | 7.53 µM | 55.8 µM | – | 5.4 | 2.47 | 6.31 µM | 3.79 | 2.41 | 10.1 | – | 3.36 | 20.8 | 1.74 | 2.68 | 1.87
O=C(/C=C/c1ccccn1)c1ccccc1 | – | 35.1 µM | 3.08 | 6.61 | – | 17.1 µM | 21 µM | – | 13.8 | 4.37 | 18.3 µM | 27.6 | 4.33 | 25.7 | – | 13.1 | 8.32 | 1.63 | 2.43 | 14.4
c1ccc(-c2nc3ccccc3[nH]2)c(OCCCCCOc2ccccc2-c2nc3ccccc3[nH]2)c1 | – | 44 µM | 29.8 | 29.8 | – | 24.5 µM | 24.6 µM | – | 12.3 | 3.44 | 11.5 µM | 33.3 | 8.55 | 14.8 | – | 3.82 | 8.96 | 12.9 | 4.14 | 13.5
CC(=O)Nc1ccc2c(c1)[nH]c(=O)c1cc(Cl)ccc12 | – | 46.7 µM | > 100 | 13.4 | – | > 100 µM | > 100 µM | – | – | – | > 100 µM | > 100 | – | > 100 | – | – | – | – | – | –
COc1cc2c(cc1OC)C(Sc1ccc(Cl)cc1)c1c(nc(N)c(C#N)c1N)O2 (configuration not stated) | – | 3.1 µM | 2.35 | 2.63 | – | 2.94 µM | 2.55 µM | – | 1.49 | 1.61 | 3.03 µM | 2.83 | 1.51 | 3.05 | – | 1.67 | 1.2 | 1.09 | 0.311 | 1.49
COc1ccc([C@H]2c3[nH]c4ccccc4c3C[C@H]3C(=O)N(CCCCCCC(=O)NO)CC(=O)N23)cc1 | – | > 33.3 µM | 5.91 | > 33.3 | – | > 33.3 µM | > 33.3 µM | – | 0.806 | 2.38 | > 33.3 µM | > 33.3 | 4.19 | > 33.3 | – | 1.83 | 2.79 | 1.54 | 1.48 | 10.9
CCOc1ccccc1NC(=O)C1=C(C)NC(C)=C(C(=O)Nc2ccccc2OCC)C1c1ccc2c(c1)OCO2 | > 100 | 83.5 µM | > 100 | 85.1 | > 100 | > 100 µM | 55.3 µM | > 100 | – | – | 84.7 µM | – | – | – | – | – | – | – | – | –
CN1CCC(C(=O)Nc2n[nH]c3nnc(-c4ccccc4)cc23)CC1 | – | > 25 µM | > 25 | > 25 | – | > 25 µM | > 25 µM | – | > 25 | 11.7 | > 25 µM | > 25 | > 25 | > 25 | – | > 25 | > 20.1 | 20.3 | > 25 | > 25
O=[N+]([O-])/C(=C/C=C/c1ccccc1)c1ccccc1 | – | 5.4 µM | 3.29 | 2.39 | – | 4.03 µM | 3.93 µM | – | 1.84 | 1.86 | 3.61 µM | 4.1 | 1.85 | 3.22 | – | 1.76 | 1.67 | 1.67 | 0.764 | 1.91
Cc1cc2nc3c(C(OC4OC(CO)C(O)C(O)C4O)C(O)CO)nn(-c4ccc(F)cc4)c3nc2cc1C (configuration not stated) | > 100 | > 100 µM | > 100 | > 100 | > 100 | > 100 µM | – | > 100 | – | – | > 100 µM | – | – | – | – | – | – | – | – | –
CCCCCCCC(=O)OC[n+]1cccc(-c2c(COC(=O)NC(C)C)c(COC(=O)NC(C)C)c3n2CCC3)c1 | – | > 100 µM | > 100 | > 84 | – | > 100 µM | > 100 µM | – | – | – | > 89.5 µM | > 100 | – | > 100 | – | – | – | – | – | –
OCCN1CCCN(CCCN2c3ccccc3Sc3ccc(C(F)(F)F)cc32)CC1 | – | 3.82 µM | 3.21 | 5.76 | – | 18.5 µM | 4.08 µM | – | 2.02 | 1.67 | 3.12 µM | 20.4 | 4.5 | 17.8 | – | 5.61 | 2.07 | 1.73 | 2.42 | 5.93
O=C(N[C@H]1CC2(C=C(I)C(=O)C(I)=C2)OC1=O)OCc1ccccc1 | 30.2 | 31.9 µM | 30.6 | 8.64 | 39.3 | 32.3 µM | – | 32.8 | – | – | 32 µM | – | – | – | – | – | – | – | – | –
CC(=O)OCCc1cc2ccccc2oc1=O | – | > 100 µM | > 100 | > 100 | – | > 100 µM | > 100 µM | – | – | – | > 100 µM | > 100 | – | > 100 | – | – | – | – | – | –
